Literature values in patent US20230287038A1, “PURIFIED SAPONINS AND CHROMATOGRAPHIC PROCESS FOR PURIFICATION OF SAME” (ACCESS TO ADVANCED HEALTH INSTITUTE, priority 2020, published 2023).

Experiments:
[1] = reversed-phase chromatography fractions of saponin extract
[2] = aqueous solution
[3] = tested on: antigens bovine serum albumin and cytochrome b5; details: mice
[4] = tested on: unconjugated bacterial polysaccharides; details: including unconjugated bacterial polysaccharides

Row | Substance | adjuvant activity [1] | pH at which hydrolysis of the fatty acyl ester bond (de-acylation) is minimized [2] | antibody response to bovine serum albumin and cytochrome b5 [3] | antibody response to T-independent antigens [4]
1 | QS-21 | identified with adjuvant activity | ~5.5 | stimulate potent antibody responses | enhance antibody responses
2 | QS-17 | identified with adjuvant activity | – | stimulate potent antibody responses | –
3 | QS-18 | identified with adjuvant activity | – | stimulate potent antibody responses | –
